Patent US8791132B2, “Compounds and methods for treatment of hypertension” (Medivation Technologies, Inc., priority 2011, dated 2014)
pKi: −log10 of the molar value. Several values for one entry are separate records, joined by “and”; a condition that tells them apart may be missing. Equal values may be shown once. Read-outs that look alike come from different tables or passages of the source.

What was measured:
[1] = molecular target: T1, human recombinant adrenergic α2B receptor (Homo sapiens, UniProt P18089); experiment: Radioligand binding, adrenergic α2B ([3H]Rauwolscine); settings: for Percentage inhibition of ligand binding, Adrenergic α2B / Percentage inhibition of ligand binding, Adrenergic α2B (0.03 μM): 0.03 µM
T1 construct: expressed in transfected cells; host or cells: CHO-K1
T1 sequence (P18089 1-450): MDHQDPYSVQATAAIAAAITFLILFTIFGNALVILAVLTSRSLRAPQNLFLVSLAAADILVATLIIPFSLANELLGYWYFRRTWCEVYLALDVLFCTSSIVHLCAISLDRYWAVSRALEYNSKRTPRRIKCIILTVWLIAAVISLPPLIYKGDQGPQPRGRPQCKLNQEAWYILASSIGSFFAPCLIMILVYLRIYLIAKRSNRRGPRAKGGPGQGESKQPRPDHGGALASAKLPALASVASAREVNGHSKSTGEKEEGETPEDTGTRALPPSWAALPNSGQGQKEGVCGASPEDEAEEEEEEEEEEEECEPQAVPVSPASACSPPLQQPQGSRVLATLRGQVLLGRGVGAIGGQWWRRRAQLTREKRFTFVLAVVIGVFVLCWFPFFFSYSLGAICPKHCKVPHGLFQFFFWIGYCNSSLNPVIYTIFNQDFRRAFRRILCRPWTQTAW
How it was run: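 Readout: percent inhibition of specific [3H]Rauwolscine binding, measured by filtration and counting. Conditions: CHO-K1 cell-expressed receptor, 2.5 nM radioligand, 60 min, 25° C, Tris-HCl pH 7.4 buffer with MgCl2, EDTA, BSA. Non-specific binding: 10 μM Prazosin.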

[2] = molecular target: T2, human recombinant adrenergic α2A receptor (Homo sapiens, UniProt P08913); experiment: Radioligand binding, adrenergic α2A ([3H]MK-912); settings: for Percentage inhibition of ligand binding, Adrenergic α2A (0.1 μM) / Percentage inhibition of ligand binding, Adrenergic α2A: 0.1 µM
T2 construct: expressed in transfected cells; host or cells: insect Sf9 cells
T2 sequence (P08913 1-465): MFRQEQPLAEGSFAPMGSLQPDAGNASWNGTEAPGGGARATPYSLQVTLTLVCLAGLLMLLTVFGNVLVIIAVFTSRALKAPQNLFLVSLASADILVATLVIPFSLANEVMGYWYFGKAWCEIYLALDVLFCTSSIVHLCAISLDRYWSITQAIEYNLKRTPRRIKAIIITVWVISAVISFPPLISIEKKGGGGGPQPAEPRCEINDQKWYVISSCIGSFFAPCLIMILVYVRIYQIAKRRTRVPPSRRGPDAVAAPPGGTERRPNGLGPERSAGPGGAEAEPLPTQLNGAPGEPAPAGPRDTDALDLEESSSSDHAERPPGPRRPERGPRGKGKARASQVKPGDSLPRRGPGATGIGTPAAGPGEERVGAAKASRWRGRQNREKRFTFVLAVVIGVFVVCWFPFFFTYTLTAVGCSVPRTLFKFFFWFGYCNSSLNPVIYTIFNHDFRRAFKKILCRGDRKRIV
How it was run: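 In 50 mM Tris-HCl (pH 7.4) containing 12.5 mM MgCl2 and 2 mM EDTA, Sf9-expressed receptor was exposed to test compound plus 1 nM [3H]MK-912 at 25 °C for 60 min. Specific binding, corrected using 10 μM WB-4101, was quantified by filtration and counting and expressed as percent inhibition.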

[3] = molecular target: T3, rat adrenergic α1B receptor (Rattus norvegicus, UniProt P15823); experiment: Radioligand binding, adrenergic α1B ([3H]Prazosin); settings: for Percentage inhibition of ligand binding, Adrenergic α1B / Percentage inhibition of ligand binding, Adrenergic α1B (0.1 μM): 0.1 µM
T3 construct: rat adrenergic α1B receptor obtained from Wistar Rat liver; from tissue; host or cells: Wistar rat liver
T3 sequence (P15823 1-515): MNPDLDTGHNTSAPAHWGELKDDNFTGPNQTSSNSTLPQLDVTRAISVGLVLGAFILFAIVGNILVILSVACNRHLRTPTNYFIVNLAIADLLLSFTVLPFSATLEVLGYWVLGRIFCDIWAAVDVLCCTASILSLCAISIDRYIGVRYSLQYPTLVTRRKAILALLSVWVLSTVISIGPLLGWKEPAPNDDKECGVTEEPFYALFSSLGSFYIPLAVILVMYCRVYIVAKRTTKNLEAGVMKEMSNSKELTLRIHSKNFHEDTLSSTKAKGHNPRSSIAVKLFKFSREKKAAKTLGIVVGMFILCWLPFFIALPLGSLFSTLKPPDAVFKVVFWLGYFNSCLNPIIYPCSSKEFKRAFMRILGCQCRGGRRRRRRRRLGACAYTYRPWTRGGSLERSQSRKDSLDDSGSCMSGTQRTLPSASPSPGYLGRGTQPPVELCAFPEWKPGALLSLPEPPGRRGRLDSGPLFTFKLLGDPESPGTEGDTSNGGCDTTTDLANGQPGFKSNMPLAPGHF
How it was run: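 Filter binding with Wistar rat liver α1B preparation: test compound plus 0.25 nM [3H]prazosin, 1 h at 25° C in modified Tris-HCl buffer pH 7.4.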

[4] = read-out: Percentage inhibition of ligand binding, Adrenergic α2B (0.03 μM), compound at 0.03 μM, [3H]Rauwolscine, repeat datapoints each shown
[5] = compound at 0.1 μM, [3H]MK-912, repeat datapoints each shown
[6] = read-out: Percentage inhibition of ligand binding, Adrenergic α2A (0.1 μM), compound at 0.1 μM, [3H]MK-912, repeat datapoints each shown
[7] = read-out: Percentage inhibition of ligand binding, Adrenergic α1B (0.1 μM), compound at 0.1 μM, [3H]Prazosin, repeat datapoints each shown
[8] = compound at 0.03 μM, [3H]Rauwolscine, repeat assays, each datapoint shown
[9] = compound at 0.1 μM, [3H]MK-912, repeat assays, each datapoint shown
[10] = compound at 0.1 μM, [3H]Prazosin, repeat assays, each datapoint shown
[11] = 0.03 μM compound, read-out: Percentage inhibition of ligand binding, Adrenergic α2B
[12] = 0.1 μM compound, read-out: Percentage inhibition of ligand binding, Adrenergic α2A
[13] = 0.1 μM compound, read-out: Percentage inhibition of ligand binding, Adrenergic α1B
[14] = compound at 0.03 μM, [3H]Rauwolscine, repeat datapoints each shown
[15] = compound at 0.1 μM, [3H]Prazosin, repeat datapoints each shown

SMILES: Cc1ccc(C(O)Cn2c3c(c4cc(C)ccc42)CN(C)CC3)cc1 (single isomer, unassigned) [183b, 2-(1,2,3,4-tetrahydro-2,8-dimethylpyrido[4,3-b]indol-5-yl)-1-p-tolylethanol]
- inhibition at 0.03 µM [1, 4]: 98%
- pKi [2]: 8.57
- Percentage inhibition of ligand binding, Adrenergic α2A (0.1 μM) [2, 5]: 97%
- inhibition at 0.03 µM ([2]; read-out: Percentage inhibition of ligand binding, Adrenergic α2A (0.03 μM), compound at 0.03 μM, [3H]MK-912, repeat datapoints each shown): 84%
- inhibition at 0.1 µM [2, 6]: 93%
- inhibition at 0.1 µM [3, 7]: 93%

SMILES: CN1Cc2c(n(CC(O)c3ccncc3)c3ncccc23)C(C)(C)C1 (single isomer, unassigned) [17b, 1-pyridin-4-yl-2-(6,8,8-trimethyl-5,6,7,8-tetrahydro-1,6,9-triaza-fluoren-9-yl)-ethanol]
- Percentage inhibition of ligand binding, Adrenergic α2B [1, 8]: 20%
- Percentage inhibition of ligand binding, Adrenergic α2A [2, 9]: 9%
- Percentage inhibition of ligand binding, Adrenergic α1B [3, 10]: 16%

SMILES: Cc1ccc2c(c1)c1c(n2CC(C)(O)c2ccc(O)nc2)CCN(C)C1 (centres unmarked) [II-80, 5-[2-(2,8-dimethyl-1,2,3,4-tetrahydro-pyrido[4,3-b]indol-5-yl)-1-hydroxy-1-methyl-ethyl]-pyridin-2-ol]
- inhibition at 0.03 µM [1, 11]: 9%
- inhibition at 0.1 µM [2, 12]: 3%
- inhibition at 0.1 µM [3, 13]: 4%

SMILES: CN1CCc2c(c3cc(Cl)ccc3n2CC(O)c2cccnc2)C1 (single isomer, unassigned) [7b]
- Percentage inhibition of ligand binding, Adrenergic α2B [1, 8]: 74%
- Percentage inhibition of ligand binding, Adrenergic α2A [2, 9]: 25%
- Percentage inhibition of ligand binding, Adrenergic α1B [3, 10]: 37%

SMILES: Cc1ccc2c(c1)c1c(n2CC(C(=O)O)c2ccncc2)CCN(C)C1 (centres unmarked) [II-262, 3-(2,8-dimethyl-3,4-dihydro-1H-pyrido[4,3-b]indol-5(2H)-yl)-2-(pyridin-4-yl)propanoic acid]
- inhibition at 0.03 µM [1, 4]: 11%
- inhibition at 0.1 µM [2, 6]: 10%
- inhibition at 0.1 µM [3, 7]: 3%

SMILES: C=CCN1CCc2c(c3cc(C)ccc3n2CC(O)c2ccncc2)C1 (centres unmarked) [II-63, 2-(2-allyl-1,2,3,4-tetrahydro-8-methylpyrido[4,3-b]indol-5-yl)-1-(pyridin-4-yl)ethanol]
- inhibition at 0.03 µM [1, 11]: 90%
- inhibition at 0.1 µM [2, 12]: 39%
- inhibition at 0.1 µM [3, 13]: 55%

SMILES: Cc1ccc2c(c1)c1c(n2CC(CC(O)C(C)(C)C)c2ccncc2)CCN(C)C1 (single isomer, unassigned) [II-227d, 6-(2,8-dimethyl-1,2,3,4-tetrahydro-pyrido[4,3-b]indol-5-yl)-2,2-dimethyl-5-pyridin-4-yl-hexan-3-ol]
- Percentage inhibition of ligand binding, Adrenergic α2B (0.03 μM) [1, 14]: 26%
- Percentage inhibition of ligand binding, Adrenergic α2A (0.1 μM) [2, 5]: 6%
- Percentage inhibition of ligand binding, Adrenergic α1B (0.1 μM) [3, 15]: 12%

SMILES: OC(Cn1c2c(c3cc(Cl)ccc31)CNCC2)c1ccncc1 (single isomer, unassigned) [10a, 2-(8-chloro-1,2,3,4-tetrahydro-pyrido[4,3-b]indol-5-yl)-1-pyridin-4-yl-ethanol]
- Percentage inhibition of ligand binding, Adrenergic α2B [1, 8]: 34%
- inhibition at 0.1 µM ([2]; compound at 0.1 μM, [3H]MK-912, repeat assays, each datapoint shown, read-out: Percentage inhibition of ligand binding, Adrenergic α2A): 8%
- inhibition at 0.1 µM ([3]; compound at 0.1 μM, [3H]Prazosin, repeat assays, each datapoint shown, read-out: Percentage inhibition of ligand binding, Adrenergic α1B): 30%

SMILES: Cc1ccc2c(c1)c1c(n2C(C)(C)C(O)c2ccccc2)CCN(C)C1 (centres unmarked) [II-187]
- inhibition at 0.03 µM [1, 4]: 27%
- inhibition at 0.1 µM [2, 6]: 10%
- inhibition at 0.1 µM [3, 7]: 54%

SMILES: CC(=O)NC(Cn1c2c(c3cc(C)ccc31)CN(C)CC2)c1ccncc1 (single isomer, unassigned) [II-1a, N-(2-(1,2,3,4-tetrahydro-2,8-dimethylpyrido[4,3-b]indol-5-yl)-1-(pyridin-4-yl)ethyl)acetamide]
- Percentage inhibition of ligand binding, Adrenergic α2B ([1]; 0.03 μM compound): 14%
- Percentage inhibition of ligand binding, Adrenergic α2A ([2]; 0.1 μM compound): 15%
- Percentage inhibition of ligand binding, Adrenergic α1B ([3]; 0.1 μM compound): 6%

SMILES: Cc1cnc2c(c1)c1c(n2CC(O)c2ccc(C#N)cc2)CCN(C)C1 (centres unmarked) [compound 145]
- inhibition at 0.03 µM [1, 4]: 61%
- inhibition at 0.1 µM [2, 6]: 6%
- inhibition at 0.1 µM [3, 7]: 49%

SMILES: Cc1ccc2c(c1)c1c(n2CC(O)c2ccncc2)CC2CCCCN2C1 (racemic) [75d]
- Percentage inhibition of ligand binding, Adrenergic α2B [1, 8]: 102%
- Percentage inhibition of ligand binding, Adrenergic α2A [2, 9]: 49%
- Percentage inhibition of ligand binding, Adrenergic α1B [3, 10]: 26%

SMILES: OC(Cn1c2c(c3cc(Cl)ccc31)CNCC2)c1ccncc1 (single isomer, unassigned) [10b, 2-(8-chloro-1,2,3,4-tetrahydro-pyrido[4,3-b]indol-5-yl)-1-pyridin-4-yl-ethanol]
- Percentage inhibition of ligand binding, Adrenergic α2B [1, 8]: 91%
- Percentage inhibition of ligand binding, Adrenergic α2A [2, 9]: 15%
- Percentage inhibition of ligand binding, Adrenergic α1B [3, 10]: 28%

SMILES: Cc1ccc2c(c1)c1c(n2CC(O)c2ccncc2)CCN(CCS(=O)(=O)O)C1 (centres unmarked) [II-97, 2-(3,4-dihydro-5-(2-hydroxy-2-(pyridin-4-yl)ethyl)-8-methyl-1H-pyrido[4,3-b]indol-2(5H)-yl)ethanesulfonic acid]
- inhibition at 0.03 µM [1, 11]: 24%
- inhibition at 0.1 µM [2, 12]: 4%
- inhibition at 0.1 µM [3, 13]: -4%

SMILES: CC1Cc2c(c3cc(Cl)ccc3n2CC(C)(O)c2cccnc2)CN1C (single isomer, unassigned) [II-147d, 1-(8-chloro-2,3-dimethyl-3,4-dihydro-1H-pyrido[4,3-b]indol-5(2H)-yl)-2-(pyridin-3-yl)propan-2-ol]
- Percentage inhibition of ligand binding, Adrenergic α2B (0.03 μM) [1, 14]: 13%
- Percentage inhibition of ligand binding, Adrenergic α2A (0.1 μM) [2, 5]: 4%
- Percentage inhibition of ligand binding, Adrenergic α1B (0.1 μM) [3, 15]: 10%

SMILES: CC(O)(Cn1c2c(c3cc(Cl)ccc31)CNCC2)c1cccnc1 (single isomer, unassigned) [175a]
- Percentage inhibition of ligand binding, Adrenergic α2B (0.03 μM) [1, 14]: 69% and 73%
- pKi ([1]; read-out: Ki α2B): 8.35
- inhibition at 0.1 µM ([1]; read-out: Percentage inhibition of ligand binding, Adrenergic α2B (0.1 μM), compound at 0.1 μM, [3H]Rauwolscine, repeat datapoints each shown): 90%
- inhibition at 0.1 µM [2, 6]: 11%
- Percentage inhibition of ligand binding, Adrenergic α1B (0.1 μM) [3, 15]: 11%
